Source: patent publication US8022228B2, “Crystal form of asenapine maleate” (N.V. Organon, priority 2005, dated 2011)
Where a name gives a salt, the structure may show the parent alone.

Tests used:
[1] = Particle size distribution by laser diffraction (LDS method); assay type: physicochemical; conditions: for D95 of micronization sample: after micronization, Chrispro MC200 jet mill, nitrogen, 7 bar; for D95 of crystallization sample: LDS
Description: LDS method. A dispersion liquid has been made consisting of (0.7 mg/ml) lecithin (used as a surfactant) in iso-octane saturated with asenapine maleate. The solution is stirred overnight. Subsequently the solution is filtered over a 0.22 μm filter. The samples were prepared by weighing approximately 30 mg asenapine maleate in a centrifugal tube and adding 2 ml of the dispersion liquid. Ultrasonic treatment of the samples was performed for 2 minutes in an ultrasonic bath (Transsonic 310). Subsequently, the particle size distribution of the sample was analyzed using laser diffraction (Malvern Mastersizer S, UK). The particle size distribution has been calculated using the Fraunhofer algorithm.

[2] = Micronization in jet mill, polymorphic form of the product by XRPD; assay type: physicochemical; conditions: polymorphic form after micronization at 7 bar
Description: X-ray powder diffraction (XRPD) spectra were obtained on an […] Panalytical Reflection diffractometer in a Bragg-Brantano setup, Cu-Kα radiation, settings 45 kV and 40 mA together with an X'celerator detector. The slits used: anti-scatter slit 1°, divergence slit 1⁄2°, soller slits 0.02 rad. Measuring conditions: scan range 5-40°2-[…] (θ), step size 0.0167°2-[…]. The samples were measured on a rotating sample disk of Si with a speed of 15 rpm.

[3] = known crystalline form, Funke et al.; cited from earlier work
[4] = Particle size observed in micrographs / microscopic picture; assay type: physicochemical; conditions: non-micronized crystallized batch

Structure (SMILES): CN1CC2c3ccccc3Oc3ccc(Cl)cc3C2C1 (centres unmarked) [batch M5, asenapine maleate]
- D95 of micronization sample ([1]; listed as M5): <6 μm
- polymorph of micronization sample ([2]; listed as M5): >95% orthorhombic

Structure (SMILES): CN1CC2c3ccccc3Oc3ccc(Cl)cc3C2C1 (centres unmarked) [batch C2, asenapine maleate]
- D95 of crystallization sample ([1]; non-micronized crystallized batch, listed as C2): 221 μm

Structure (SMILES): CN1CC2c3ccccc3Oc3ccc(Cl)cc3C2C1 (centres unmarked) [batch M7, asenapine maleate]
- D95 of micronization sample ([1]; listed as M7): <12 μm
- polymorph of micronization sample ([2]; listed as M7): >95% orthorhombic

Structure (SMILES): CN1CC2c3ccccc3Oc3ccc(Cl)cc3C2C1.O=C(O)/C=C\C(=O)O (centres unmarked) [asenapine maleate]
- size of crystalline particles as observed in micrographs [3]: over 100 μm

Structure (SMILES): CN1CC2c3ccccc3Oc3ccc(Cl)cc3C2C1 (centres unmarked) [batch C5, asenapine maleate]
- average particle size by LDS ([1]; non-micronized crystallized batch): ~30 μm
- D95 of crystallization sample ([1]; non-micronized crystallized batch, listed as C5): 30-100 μm
- particle size in microscopic picture [4]: up to 100 μm

Structure (SMILES): CN1CC2c3ccccc3Oc3ccc(Cl)cc3C2C1 (centres unmarked) [batch C1, asenapine maleate]
- D95 of crystallization sample ([1]; non-micronized crystallized batch, listed as C1): 199 μm

Structure (SMILES): CN1CC2c3ccccc3Oc3ccc(Cl)cc3C2C1 (centres unmarked) [batch M4, asenapine maleate]
- D95 of micronization sample ([1]; listed as M4): <9 μm
- polymorph of micronization sample ([2]; listed as M4): >95% orthorhombic

Structure (SMILES): CN1CC2c3ccccc3Oc3ccc(Cl)cc3C2C1 (centres unmarked) [batch M2, asenapine maleate]
- D95 of micronization sample ([1]; listed as M2): <14 μm
- polymorph of micronization sample ([2]; listed as M2): >95% monoclinic

Structure (SMILES): CN1CC2c3ccccc3Oc3ccc(Cl)cc3C2C1 (centres unmarked) [batch M1, asenapine maleate]
- D95 of micronization sample ([1]; listed as M1): <12 μm
- polymorph of micronization sample ([2]; listed as M1): >95% orthorhombic

Structure (SMILES): CN1CC2c3ccccc3Oc3ccc(Cl)cc3C2C1 (centres unmarked) [batch M6, asenapine maleate]
- D95 of micronization sample ([1]; listed as M6): <10 μm
- polymorph of micronization sample ([2]; listed as M6): >95% orthorhombic

Structure (SMILES): CN1CC2c3ccccc3Oc3ccc(Cl)cc3C2C1 (centres unmarked) [batch M3, asenapine maleate]
- D95 of micronization sample ([1]; listed as M3): <16 μm
- polymorph of micronization sample ([2]; listed as M3): 80% orthorhombic, 20%
